Where “and” joins values, the source holds several entries; their conditions need not be identical. Equal entries are not always repeated. Entries after “also recorded” stand apart in the source; their conditions may differ.
What was measured:
[1] = system: C. elegans; experiment: C. elegans motor phenotype scoring on solid media (Punc/jerky-unc, coiled, paralyzed), wild-type young adults; assay type: in vivo, Caenorhabditis elegans; conditions: for any phene, mean % fraction of young adults exhibiting any phenotype (coiled, jerky-Unc or paralyzed) / atypical locomotion (number of animals) / coiled (number of animals) / no phene (number of animals) / paralyzed (number of animals): one hour; for any phene, mean % fraction of young adults exhibiting any phenotype (coiled, jerky-Unc or paralyzed): mean of three biological replicates; for atypical locomotion (number of animals) / coiled (number of animals) / no phene (number of animals) / paralyzed (number of animals): young adults, 20 animals per trial, single replicate counts; for C1 (number of animals scored) / C2 (number of animals scored) / Fraction Coiled, AVERAGES / Fraction Paralyzed, AVERAGES / Fraction Punc, AVERAGES / NP (number of animals scored) / P (number of animals scored) / Fraction Coiled / Fraction Paralyzed / Punc (number of animals scored) / Fraction Punc / Next Day: Animals alive (moving fine): adults; for Fraction Coiled / Fraction Paralyzed / Fraction Punc: single experiment
[2] = system: Dirofilaria immitis L3/L4; experiment: Dirofilaria immitis L3/L4 motility assay (DiroImager, 72 h); conditions: Dirofilaria immitis L4

## O=[N+]([O-])c1ccc(N2CCN(CC3CC4C=CC3C4)CC2)cc1 (stereo not drawn) [Nemacol-3]
[1]; 3.75uM
  any phene, mean % fraction of young adults exhibiting any phenotype (coiled, jerky-Unc or paralyzed): 19.1667%
  atypical locomotion (number of animals): 0 and 13 and 10
  coiled (number of animals): 0
  no phene (number of animals): 20 and 7 and 10
  paralyzed (number of animals): 0
[1]; 15 μM, 30 min
  C1 (number of animals scored): 0
  C2 (number of animals scored): 0
  Fraction Coiled, AVERAGES: 0.0
  Fraction Paralyzed, AVERAGES: 0.0
  Fraction Punc, AVERAGES: 0.111
  NP (number of animals scored): 17 and 14
  P (number of animals scored): 0
  Fraction Coiled: 0.0
  Fraction Paralyzed: 0.0
[1]; 15 μM, 60 min
  C1 (number of animals scored): 0
  C2 (number of animals scored): 0
  Fraction Coiled, AVERAGES: 0.0
  Fraction Paralyzed, AVERAGES: 0.0
  Fraction Punc, AVERAGES: 0.4
  P (number of animals scored): 0
  Fraction Coiled: 0.0
  Fraction Paralyzed: 0.0
[1]; 15 μM, 90 min
  C1 (number of animals scored): 0
  C2 (number of animals scored): 0
  Fraction Coiled, AVERAGES: 0.0
  Fraction Paralyzed, AVERAGES: 0.0
  Fraction Punc, AVERAGES: 0.167
  NP (number of animals scored): 16 and 14 and 15
  P (number of animals scored): 0
  Punc (number of animals scored): 2 and 4 and 3
  Fraction Coiled: 0.0
  Fraction Paralyzed: 0.0
  Fraction Punc: 0.111 and 0.222 and 0.167
[1]; 15 μM, 120 min
  C1 (number of animals scored): 0
  C2 (number of animals scored): 0
  Fraction Coiled, AVERAGES: 0.0
  Fraction Paralyzed, AVERAGES: 0.0
  Fraction Punc, AVERAGES: 0.0185
  NP (number of animals scored): 18 and 17
  P (number of animals scored): 0
  Fraction Coiled: 0.0
  Fraction Paralyzed: 0.0
[1]; 15 μM, 240 min
  C1 (number of animals scored): 0
  C2 (number of animals scored): 0
  Fraction Coiled, AVERAGES: 0.0
  Fraction Paralyzed, AVERAGES: 0.0
  Fraction Punc, AVERAGES: 0.0
  NP (number of animals scored): 18
  P (number of animals scored): 0
  Punc (number of animals scored): 0
  Fraction Coiled: 0.0
  Fraction Paralyzed: 0.0
  Fraction Punc: 0.0
[1]; 15 μM, 360 min
  C1 (number of animals scored): 0
  C2 (number of animals scored): 0
  Fraction Coiled, AVERAGES: 0.0
  Fraction Paralyzed, AVERAGES: 0.0
  Fraction Punc, AVERAGES: 0.0
  NP (number of animals scored): 18
  P (number of animals scored): 0
  Punc (number of animals scored): 0
  Fraction Coiled: 0.0
  Fraction Paralyzed: 0.0
  Fraction Punc: 0.0
[1]; 15 μM
  Next Day: Animals alive (moving fine): alive, recovered; also recorded: alive recovered
[1]; 15uM
  any phene, mean % fraction of young adults exhibiting any phenotype (coiled, jerky-Unc or paralyzed): 65.4545%
  atypical locomotion (number of animals): 12 and 14 and 4 and 3 and 7
  coiled (number of animals): 2 and 1 and 5
  no phene (number of animals): 6 and 5 and 15 and 16 and 0
  paralyzed (number of animals): 2 and 0 and 8 and 11
[1]; 30 μM, 30 min
  C1 (number of animals scored): 0
  C2 (number of animals scored): 0
  Fraction Coiled, AVERAGES: 0.0
  Fraction Paralyzed, AVERAGES: 0.0
  Fraction Punc, AVERAGES: 0.333
  NP (number of animals scored): 14 and 11
  P (number of animals scored): 0
  Punc (number of animals scored): 4 and 7
  Fraction Coiled: 0.0
  Fraction Paralyzed: 0.0
  Fraction Punc: 0.222 and 0.4
[1]; 30 μM, 60 min
  C1 (number of animals scored): 0
  C2 (number of animals scored): 0
  Fraction Coiled, AVERAGES: 0.0
  Fraction Paralyzed, AVERAGES: 0.0
  Fraction Punc, AVERAGES: 0.6
  P (number of animals scored): 0
  Punc (number of animals scored): 8 and 15
  Fraction Coiled: 0.0
  Fraction Paralyzed: 0.0
  Fraction Punc: 0.444 and 0.8
[1]; 30 μM, 90 min
  C1 (number of animals scored): 0
  C2 (number of animals scored): 0
  Fraction Coiled, AVERAGES: 0.0
  Fraction Paralyzed, AVERAGES: 0.0
  Fraction Punc, AVERAGES: 0.3
  NP (number of animals scored): 13 and 9 and 16
  P (number of animals scored): 0
  Fraction Coiled: 0.0
  Fraction Paralyzed: 0.0
[1]; 30 μM, 120 min
  C1 (number of animals scored): 0
  C2 (number of animals scored): 0
  Fraction Coiled, AVERAGES: 0.0
  Fraction Paralyzed, AVERAGES: 0.0
  Fraction Punc, AVERAGES: 0.0741
  NP (number of animals scored): 17 and 16
  P (number of animals scored): 0
  Punc (number of animals scored): 1 and 2
  Fraction Coiled: 0.0
  Fraction Paralyzed: 0.0
  Fraction Punc: 0.0556 and 0.111
[1]; 30 μM, 240 min
  C1 (number of animals scored): 0
  C2 (number of animals scored): 0
  Fraction Coiled, AVERAGES: 0.0
  Fraction Paralyzed, AVERAGES: 0.0
  Fraction Punc, AVERAGES: 0.0
  NP (number of animals scored): 18
  P (number of animals scored): 0
  Punc (number of animals scored): 0
  Fraction Coiled: 0.0
  Fraction Paralyzed: 0.0
  Fraction Punc: 0.0
[1]; 30 μM, 360 min
  C1 (number of animals scored): 0
  C2 (number of animals scored): 0
  Fraction Coiled, AVERAGES: 0.0
  Fraction Paralyzed, AVERAGES: 0.0
  Fraction Punc, AVERAGES: 0.0
  NP (number of animals scored): 18
  P (number of animals scored): 0
  Punc (number of animals scored): 0
  Fraction Coiled: 0.0
  Fraction Paralyzed: 0.0
  Fraction Punc: 0.0
[1]; 30 μM
  Next Day: Animals alive (moving fine): alive, recovered; also recorded: alive, recoveed
[1]; 60 μM, 30 min
  C1 (number of animals scored): 0
  C2 (number of animals scored): 0
  Fraction Coiled, AVERAGES: 0.0
  Fraction Paralyzed, AVERAGES: 0.0
  Fraction Punc, AVERAGES: 0.667
  NP (number of animals scored): 8 and 6 and 4
  P (number of animals scored): 0
  Punc (number of animals scored): 10 and 12 and 14
  Fraction Coiled: 0.0
  Fraction Paralyzed: 0.0
  Fraction Punc: 0.556 and 0.667 and 0.8
[1]; 60 μM, 60 min
  C1 (number of animals scored): 0
  C2 (number of animals scored): 0
  Fraction Coiled, AVERAGES: 0.0
  Fraction Paralyzed, AVERAGES: 0.0
  Fraction Punc, AVERAGES: 0.741
  NP (number of animals scored): 5 and 3 and 6
  P (number of animals scored): 0
  Punc (number of animals scored): 13 and 15 and 12
  Fraction Coiled: 0.0
  Fraction Paralyzed: 0.0
  Fraction Punc: 0.8 and 0.667
[1]; 60 μM, 90 min
  C1 (number of animals scored): 0
  C2 (number of animals scored): 0
  Fraction Coiled, AVERAGES: 0.0
  Fraction Paralyzed, AVERAGES: 0.0
  Fraction Punc, AVERAGES: 0.463
  P (number of animals scored): 0
  Fraction Coiled: 0.0
  Fraction Paralyzed: 0.0
[1]; 60 μM, 120 min
  C1 (number of animals scored): 0
  C2 (number of animals scored): 0
  Fraction Coiled, AVERAGES: 0.0
  Fraction Paralyzed, AVERAGES: 0.0
  Fraction Punc, AVERAGES: 0.259
  NP (number of animals scored): 10 and 15
  P (number of animals scored): 0
  Fraction Coiled: 0.0
  Fraction Paralyzed: 0.0
[1]; 60 μM, 240 min
  C1 (number of animals scored): 0
  C2 (number of animals scored): 0
  Fraction Coiled, AVERAGES: 0.0
  Fraction Paralyzed, AVERAGES: 0.0
  Fraction Punc, AVERAGES: 0.037
  NP (number of animals scored): 18 and 16
  P (number of animals scored): 0
  Fraction Coiled: 0.0
  Fraction Paralyzed: 0.0
  Fraction Punc: 0.0
[1]; 60 μM, 360 min
  C1 (number of animals scored): 0
  C2 (number of animals scored): 0
  Fraction Coiled, AVERAGES: 0.0
  Fraction Paralyzed, AVERAGES: 0.0
  Fraction Punc, AVERAGES: 0.0
  NP (number of animals scored): 18
  P (number of animals scored): 0
  Punc (number of animals scored): 0
  Fraction Coiled: 0.0
  Fraction Paralyzed: 0.0
  Fraction Punc: 0.0
[1]; 60 μM
  Next Day: Animals alive (moving fine): alive, recovered; also recorded: alive recovered
[1]; 60uM
  any phene, mean % fraction of young adults exhibiting any phenotype (coiled, jerky-Unc or paralyzed): 95.8333%
  atypical locomotion (number of animals): 5 and 8 and 9 and 7 and 0 and 4
  coiled (number of animals): 8 and 6 and 10
  no phene (number of animals): 0 and 2 and 3
  paralyzed (number of animals): 7 and 6 and 1 and 4 and 10 and 8
[1]; Caenorhabditis elegans, 1 h, Fig. 1, dose-response at 60 min, wild-type young adults, +/- 95% CI, read-out: EC50
  EC50: 24.5 ± 6.1 µM
[2]; 2 µM
  % effect (motility), DIROIM L4: 0%
[2]; 10 µM
  % effect (motility), DIROIM L4: 75%
[2]; 50 µM
  % effect (motility), DIROIM L4: 100%
